# Experimental data: the supplement of paper PMC10307832
# How the values were obtained:
# Test in all cases: relative viability (nuclei count vs DMSO), 5 days (fraction); higher = more cells survive
# [1] = compound: NCC(=O)Nc1ccc(-n2nc(C(F)(F)F)cc2-c2ccc3c(ccc4ccccc43)c2)cc1 + CC(C)C[C@H](NC(=O)[C@H](Cc1ccccc1)NC(=O)c1cnccn1)B(O)O [Bortezomib] (partner 0.002 µM)
# How it was run: (§1)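 Lung cancer cell lines were pin-tool dosed in 1536-well plates on the day after seeding, with either a lone drug or a fixed anchor-drug dose plus five library-drug doses (not always all listed) in √10 steps. Nuclei were counted on 4× images after 5 days. Relative viability is the ratio of treated-well to vehicle-well nuclei counts, with each value a median of duplicate plates.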
# [2] = compound: NCC(=O)Nc1ccc(-n2nc(C(F)(F)F)cc2-c2ccc3c(ccc4ccccc43)c2)cc1 + C[C@@H](Oc1cc(-c2cnn(C3CCNCC3)c2)cnc1N)c1c(Cl)ccc(F)c1Cl [Crizotinib] (partner 1 µM)
# How it was run: as §1
# [3] = compound: C1CSC2=C(C(=O)N1)SC3=C2C=C(C=C3)O [kb NB 142-70] + CCNC(=O)c1noc(-c2cc(C(C)C)c(O)cc2O)c1-c1ccc(CN2CCOCC2)cc1 [Luminespib] (partner 0.01 µM)
# How it was run: as §1
# [4] = compound: NCC(=O)Nc1ccc(-n2nc(C(F)(F)F)cc2-c2ccc3c(ccc4ccccc43)c2)cc1 + Nc1ncn([C@H]2C[C@H](O)[C@@H](CO)O2)c(=O)n1 [Decitabine] (partner 2 µM)
# How it was run: as §1
cell line,measurement,setting,value
UMC-11,relative viability,[1]; first compound 0.02 µM,0.831
same,relative viability,[1]; first compound 0.06325 µM,0.762
same,relative viability,[1]; first compound 0.2 µM,0.693
same,relative viability,[1]; first compound 0.6325 µM,0.658
same,relative viability,[1]; first compound 2 µM,0.674
same,relative viability,[2]; first compound 0.02 µM,0.728
same,relative viability,[2]; first compound 0.06325 µM,0.638
same,relative viability,[2]; first compound 0.2 µM,0.622
same,relative viability,[2]; first compound 0.6325 µM,0.604
same,relative viability,[2]; first compound 2 µM,0.567
same,relative viability,[3]; first compound 0.1 µM,1.02
same,relative viability,[3]; first compound 1 µM,0.908
same,relative viability,[3]; first compound 3.162 µM,0.494
same,relative viability,[4]; first compound 0.02 µM,0.63
same,relative viability,[4]; first compound 0.06325 µM,0.593
same,relative viability,[4]; first compound 0.2 µM,0.557
same,relative viability,[4]; first compound 0.6325 µM,0.539
same,relative viability,[4]; first compound 2 µM,0.701
